Measurements from article PMC11355195 (Life, 2024).
In brackets after ≈: the same amount, converted by molar mass.

Assays:
DPPH scavenging capacity = settings: 0.1 mM DPPH
Protocol: The method utilized to test the compound’s efficacy in scavenging DPPH radicals was based on protocols detailed in references, with minor changes. The test was completed in duplicate for each concentration. A solution of 0.1 mM DPPH (2,2-diphenyl-1-picrylhydrazyl) was produced, and the compounds were evaluated at different concentrations ranging from 1 to 500 µg/mL. Ascorbic acid served as the positive control with concentrations ranging from 0.01 to 300 µg/mL [35].

[1] = Oxygen radical absorbance capacity (ORAC); settings: Trolox equivalents
Protocol: The ORAC (Oxygen Radical Absorbance Capacity) test was carried out using a modified version of the procedure reported by Huang et al.. This test examines the antioxidant capacity of compounds by examining their ability to neutralize oxygen radicals. The method was carried out utilizing a 96-well microplate format. First, 150 µL of fluorescein solution, produced as 8 × 10^−8 M fluorescein in 0.075 M phosphate buffer (pH 7.4), were dispersed to each well. Fluorescein is a fluorescent probe whose fluorescence lowers when it reacts with radicals. Next, 25 µL of the substance or mixture to be evaluated was added to the corresponding wells. Wells containing 25 µL of phosphate buffer served as blanks, and wells containing 25 µL of Trolox solution (from 10 to 100 µm) were utilized as standards. Control wells containing 50 µL phosphate buffer without any radicals were also added to provide a baseline. The reaction was initiated by adding 25 µL of a freshly produced solution of AAPH (2,2′-azobis(2-methylpropionamidine) dihydrochloride) at a concentration of 165.94 mM in phosphate buffer to each well, except for the control wells, at a temperature of 37 °C. AAPH creates peroxyl radicals that induce oxidative stress in the fluorescein solution, simulating free-radical attack. […] The fluorescence in-tensity of the mixture was then monitored at regular intervals for 120 min.

MDA-MB-231 = test: MTT cell viability, MDA-MB-231; format: cell-based, Human; settings: Homo sapiens, MDA-MB-231; MTT test; 72 h of treatment (Figure 3); read-out: IC50 Value ± SD, MDA-MB-231
Protocol: (§1) These cell lines were selected to represent distinct sub-types of breast cancer for extensive investigation. […] The medium was added with 10% heat-inactivated fetal calf serum (FCS) to supply vital growth hormones and nutrients necessary for cell proliferation. Additionally, 1% penicillin streptomycin was administered to avoid bacterial contamination, ensuring the sterility and integrity of the cell cultures. The cell cultures were maintained at 37 °C in a humidified environment containing 5% CO2. This controlled environment mimics physiological conditions in the human body, supporting optimal cell development and function. The humidified atmosphere prevents medium evaporation, while the 5% CO2 concentration maintains optimal pH values in the culture medium. These specialized circumstances and methods ensure that the breast cancer cell lines remain healthy and viable for experimental procedures, delivering dependable and reproducible results for research projects. The standard protocols followed for cultivating these cells are crucial for generating consistent and reliable data. Using well-characterized cell lines from a credible source like ATCC ensures the re-liability and comparability of the experimental outcomes.
(§2) This approach determines cell viability based on the ability of living cells to decrease MTT to a purple, water-insoluble formazan product. Cells were planted in 96-well plates at a density of 1 × 10^4 cells per well in 100 μL of complete culture media, which provides all necessary nutrients for cell growth. […] The cells were then treated with the compounds for 24, 48, and 72 h to determine the effect on cell viability over varied time intervals. Following each incubation time, 20 μL of MTT solution (at a concentration of 5 mg/mL in PBS) were applied to each well. The plates were further incubated for 4 h at 37 °C, during which time live cells decrease the MTT to formazan, creating purple crystals. At the end of the incubation, the medium containing the MTT was carefully aspirated, leaving only the formazan crystals in the bottom of the wells. […]

MDA-MB-436 = test: MTT cell viability, MDA-MB-436; format: cell-based, Human; settings: Homo sapiens, MDA-MB-436; MTT test; 72 h of treatment (Figure 3); read-out: IC50 Value ± SD, MDA-MB-436
Protocol: as §1, §2

5-LOX = target: T1, 5-LOX (Glycine max, UniProt P08170); test: 5-Lipoxygenase (5-LOX) inhibition
T1 sequence (P08170 1-839): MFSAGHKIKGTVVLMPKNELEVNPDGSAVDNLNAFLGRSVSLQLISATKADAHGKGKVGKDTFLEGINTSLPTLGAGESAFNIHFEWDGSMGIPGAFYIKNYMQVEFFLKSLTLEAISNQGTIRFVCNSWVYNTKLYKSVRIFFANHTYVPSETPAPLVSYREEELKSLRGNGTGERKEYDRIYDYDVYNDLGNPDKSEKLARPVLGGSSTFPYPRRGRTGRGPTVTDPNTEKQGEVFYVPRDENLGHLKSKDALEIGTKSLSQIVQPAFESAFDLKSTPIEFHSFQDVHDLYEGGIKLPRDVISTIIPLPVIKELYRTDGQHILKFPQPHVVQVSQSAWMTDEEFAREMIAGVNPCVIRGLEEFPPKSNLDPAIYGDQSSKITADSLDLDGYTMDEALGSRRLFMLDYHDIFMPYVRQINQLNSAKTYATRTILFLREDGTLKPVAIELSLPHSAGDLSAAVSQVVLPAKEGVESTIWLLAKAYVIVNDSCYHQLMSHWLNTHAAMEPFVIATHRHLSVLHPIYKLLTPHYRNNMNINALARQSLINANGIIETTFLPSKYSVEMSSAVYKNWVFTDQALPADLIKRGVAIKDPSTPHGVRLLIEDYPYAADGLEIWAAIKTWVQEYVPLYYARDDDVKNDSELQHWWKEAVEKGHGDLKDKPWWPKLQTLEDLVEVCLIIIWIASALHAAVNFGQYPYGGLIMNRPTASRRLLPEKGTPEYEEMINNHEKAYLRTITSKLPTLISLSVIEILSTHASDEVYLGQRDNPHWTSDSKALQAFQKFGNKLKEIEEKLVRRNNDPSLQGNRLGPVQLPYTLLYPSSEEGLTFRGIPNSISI
Text: The % inhibition of hydrogen peroxide formation, an indication of lipoxygenase inhibitory action, was computed according to the formula: Inhibition percentage%=Acontrol−Ablank−Asample−Ablank/Acontrol−Ablank where Acontrol, Ablank and ASample represent the absorbances of the control well, blank, and test sample, respectively.

DPPH Scavenging Capacity IC50 (DPPH scavenging capacity): 161.02 ± 6.89 µg/mL | IC50 (MDA-MB-231): 8.22 ± 0.94 µg/mL (≈ 54.7 µM) | IC50 (MDA-MB-436): 15.8 ± 1.69 µg/mL (≈ 105 µM) | IC50 (5-LOX): 308 µM
Compound: Cc1ccc(C(C)C)c(O)c1 [Thymol, 2-isopropyl-5-methylphenol]
Oxygen Radical Absorbance Capacity [1]: 2.341 ± 0.009 mmol TE/g
